This is an account of results in PMC4923153, “Protection of Primary Dopaminergic Midbrain Neurons by GPR139 Agonists Supports Different Mechanisms of MPP^+ and Rotenone Toxicity” (Frontiers in Cellular Neuroscience, 2016).

This assay relates to primary DA midbrain neurons. The assay can be described thus: Protection of primary DA midbrain neurons against 6-OHDA toxicity (TH-positive neuron count). Format: cell-based, mice. Conditions: 1 μM agonist 1 h, 0-50 μM 6-OHDA 24 h. The procedure:
Experiments were conducted in accordance with the ethical guidelines of H. Lundbeck A/S and the Danish legislation of animal use for scientific procedures. Cell culture was basically performed as described (Nagel et al., [2008]), with few modifications. […] Plates were stored at 4°C until tyrosine-hydroxylase-positive (TH-positive) neurons were counted using a Thermo Scientific Cellomics® ArrayScan® VTI HCS Reader. […] To ensure that only healthy primary cultures were assessed, we furthermore excluded experiments with total cell counts below Mean minus standard deviation (SD) of the summarized experiments. […]
Neuronal midbrain cultures were pretreated with 1 μM of either one of the agonists compound 1 ( [drawing 9] ), compound 2 ( [drawing 10] ), or compound 3 ( [drawing 11] ), or vehicle ( [drawing 12] ) for 1 h, followed by treatment with the indicated concentrations of 6-hydroxydopamine (6-OHDA) for 24 h. TH-positive neurons were counted and normalized to control numbers.

For `CN(C)C1CCN(C(=O)CNC(=O)Cc2cccc3ccccc23)C1` (stereo not shown) [compound 2, N-[2-(3-Dimethylamino-pyrrolidin-1-yl)-2-oxo-ethyl]-2-Naphthalen-1-yl-acetamide], the “protection against 6-OHDA toxicity” value is reported as “do not protect”.
